From ChEMBL document CHEMBL3864146, “5-Alkyloxytryptamines are membrane-targeting, broad-spectrum antibiotics” (Bioorg Med Chem Lett, 2016)
Calls of active or inactive are those of the source. No cut-off for these calls is given here.

Legend:
Escherichia coli [1] = assay: Induction of membrane permeabilization in Escherichia coli BW25113 at MIC after 15 mins by propidium iodide staining-based fluorescence microplate reader method relative to 50% ethanol; type: functional
Escherichia coli [2] = assay: Adjuvant activity assessed as potentiation of tetracycline-induced antibacterial activity against Escherichia coli BW25113 at 0.5 times MIC after 16 to 18 hrs by checkerboard assay (reference value: 2 ng/ml); type: functional
Vibrio cholerae [3] = assay: Antibacterial activity against Vibrio cholerae after 16 to 18 hrs by micro-dilution method; type: functional
Escherichia coli [4] = assay: Antibacterial activity against Escherichia coli 5-NOT mutant 15-1 harboring ydeA gene mutation by multiple copy suppression assay; type: functional
Shigella boydii [5] = assay: Bactericidal activity against Shigella boydii after 22 hrs by micro-dilution method; type: functional
Escherichia coli [6] = assay: Induction of membrane permeabilization in Escherichia coli BW25113 at MIC to 2 times MIC after 5 mins by propidium iodide staining-based flow cytometric method; type: functional
Shigella boydii [7] = assay: Ratio of MBC to MIC for Shigella boydii; type: functional
Edwardsiella tarda [8] = assay: Bactericidal activity against Edwardsiella tarda after 22 hrs by micro-dilution method; type: functional
Klebsiella pneumoniae [9] = assay: Antibacterial activity against Klebsiella pneumoniae after 16 to 18 hrs by micro-dilution method; type: functional
Escherichia coli [10] = assay: Antibacterial activity against Escherichia coli 5-NOT mutant 8 harboring pykA gene mutation by multiple copy suppression assay; type: functional
Pseudomonas aeruginosa [11] = assay: Ratio of MBC to MIC for Pseudomonas aeruginosa; type: functional
Escherichia coli [12] = assay: Antibacterial activity against Escherichia coli BW25113 by multiple copy suppression assay; type: functional
Shigella boydii [13] = assay: Antibacterial activity against Shigella boydii after 16 to 18 hrs by micro-dilution method; type: functional
Bacillus subtilis [14] = assay: Antibacterial activity against Bacillus subtilis 168 after 16 to 18 hrs by micro-dilution method; type: functional; conditions: subsp. subtilis str. 168
Klebsiella aerogenes [15] = assay: Antibacterial activity against Enterobacter aerogenes after 16 to 18 hrs by micro-dilution method; type: functional
Staphylococcus aureus [16] = assay: Ratio of MBC to MIC for Staphylococcus aureus; type: functional
Morganella morganii [17] = assay: Ratio of MBC to MIC for Morganella morganii; type: functional
Escherichia coli [18] = assay: Adjuvant activity assessed as potentiation of chloramphenicol-induced antibacterial activity against Escherichia coli BW25113 at 0.5 times MIC after 16 to 18 hrs by checkerboard assay (reference value: 8 ng/ml); type: functional
Vibrio cholerae [19] = assay: Ratio of MBC to MIC for Vibrio cholerae; type: functional
Acinetobacter baumannii [20] = assay: Antibacterial activity against Acinetobacter baumannii after 16 to 18 hrs by micro-dilution method; type: functional
Klebsiella pneumoniae [21] = assay: Bactericidal activity against Klebsiella pneumoniae after 22 hrs by micro-dilution method; type: functional
Escherichia coli [22] = assay: Ratio of MBC to MIC for Escherichia coli BW25113 after 16 to 18 hrs by micro-dilution method; type: functional
Escherichia coli [23] = assay: Adjuvant activity assessed as potentiation of ciprofloxacin-induced antibacterial activity against Escherichia coli BW25113 at 0.5 times MIC after 16 to 18 hrs by checkerboard assay (reference value: 13 ng/ml); type: functional
Acinetobacter baumannii [24] = assay: Ratio of MBC to MIC for Acinetobacter baumannii; type: functional
Streptococcus pyogenes [25] = assay: Bactericidal activity against Streptococcus pyogenes after 22 hrs; type: functional
Pseudomonas aeruginosa [26] = assay: Bactericidal activity against Pseudomonas aeruginosa after 22 hrs by micro-dilution method; type: functional
Escherichia coli [27] = assay: Adjuvant activity assessed as potentiation of chloramphenicol-induced antibacterial activity against Escherichia coli BW25113 at 0.25 times MIC after 16 to 18 hrs by checkerboard assay (reference value: 8 ng/ml); type: functional
Acinetobacter baumannii [28] = assay: Bactericidal activity against Acinetobacter baumannii after 22 hrs by micro-dilution method; type: functional
Escherichia coli [29] = assay: Antibacterial activity against Escherichia coli 5-NOT mutant 8 harboring ydeA gene mutation by multiple copy suppression assay; type: functional
Vibrio cholerae [30] = assay: Bactericidal activity against Vibrio cholerae after 22 hrs by micro-dilution method; type: functional
Escherichia coli [31] = assay: Antibacterial activity against tolC-deficient Escherichia coli BW25113 after 16 to 18 hrs by micro-dilution method; type: functional
Edwardsiella tarda [32] = assay: Antibacterial activity against Edwardsiella tarda after 16 to 18 hrs by micro-dilution method; type: functional
Escherichia coli [33] = assay: Antibacterial activity against Escherichia coli BW25113 after 16 to 18 hrs by micro-dilution method; type: functional
Edwardsiella tarda [34] = assay: Ratio of MBC to MIC for Edwardsiella tarda; type: functional
Escherichia coli [35] = assay: Adjuvant activity assessed as potentiation of tetracycline-induced antibacterial activity against Escherichia coli BW25113 at 0.25 times MIC after 16 to 18 hrs by checkerboard assay (reference value: 2 ng/ml); type: functional
Escherichia coli [36] = assay: Ratio of MBC to MIC for tolC-deficient Escherichia coli BW25113; type: functional
Escherichia coli [37] = assay: Antibacterial activity against Escherichia coli 5-NOT mutant 15-1 harboring thrS gene mutation by multiple copy suppression assay; type: functional
Staphylococcus aureus [38] = assay: Bactericidal activity against Staphylococcus aureus after 22 hrs by micro-dilution method; type: functional
Morganella morganii [39] = assay: Antibacterial activity against Morganella morganii after 16 to 18 hrs by micro-dilution method; type: functional
Streptococcus pyogenes [40] = assay: Antibacterial activity against Streptococcus pyogenes after 16 to 18 hrs; type: functional
Bacillus subtilis [41] = assay: Bactericidal activity against Bacillus subtilis 168 after 22 hrs by micro-dilution method; type: functional; conditions: subsp. subtilis str. 168, 22 h
Morganella morganii [42] = assay: Bactericidal activity against Morganella morganii after 22 hrs by micro-dilution method; type: functional
Pseudomonas aeruginosa [43] = assay: Antibacterial activity against Pseudomonas aeruginosa after 16 to 18 hrs by micro-dilution method; type: functional
Escherichia coli [44] = assay: Antibacterial activity against Escherichia coli 5-NOT mutant 15-1 harboring pykA gene mutation by multiple copy suppression assay; type: functional
Escherichia coli [45] = assay: Bactericidal activity against Escherichia coli BW25113 after 22 hrs by micro-dilution method; type: functional; conditions: BW25113, 22 h
Klebsiella aerogenes [46] = assay: Ratio of MBC to MIC for Enterobacter aerogenes; type: functional
Bacillus subtilis [47] = assay: Ratio of MBC to MIC for Bacillus subtilis 168; type: functional, subsp. subtilis str. 168
Escherichia coli [48] = assay: Adjuvant activity assessed as potentiation of rifampicin-induced antibacterial activity against Escherichia coli BW25113 at 0.25 times MIC after 16 to 18 hrs by checkerboard assay (reference value: 8 ng/ml); type: functional
Escherichia coli [49] = assay: Adjuvant activity assessed as potentiation of ciprofloxacin-induced antibacterial activity against Escherichia coli BW25113 at 0.25 times MIC after 16 to 18 hrs by checkerboard assay (reference value: 13 ng/ml); type: functional
Streptococcus pyogenes [50] = assay: Ratio of MBC to MIC for Streptococcus pyogenes; type: functional
Salmonella typhimurium [51] = assay: Antibacterial activity against Salmonella typhimurium after 16 to 18 hrs by micro-dilution method; type: functional, Salmonella enterica subsp. enterica serovar Typhimurium; conditions: Salmonella enterica
Escherichia coli [52] = assay: Bactericidal activity against tolC-deficient Escherichia coli BW25113 after 22 hrs by micro-dilution method; type: functional; conditions: BW25113, 22 h
Klebsiella aerogenes [53] = assay: Bactericidal activity against Enterobacter aerogenes after 22 hrs by micro-dilution method; type: functional
Klebsiella pneumoniae [54] = assay: Ratio of MBC to MIC for Klebsiella pneumoniae; type: functional
Salmonella typhimurium [55] = assay: Ratio of MBC to MIC for Salmonella typhimurium; type: functional, Salmonella enterica subsp. enterica serovar Typhimurium
Escherichia coli [56] = assay: Antibacterial activity against Escherichia coli 5-NOT mutant 8 harboring otsA gene mutation by multiple copy suppression assay; type: functional
Salmonella typhimurium [57] = assay: Bactericidal activity against Salmonella typhimurium after 22 hrs by micro-dilution method; type: functional, Salmonella enterica subsp. enterica serovar Typhimurium; conditions: Salmonella enterica
Homo sapiens = species on record: Homo sapiens; assay: Selectivity ratio of Ki for 5-HT1A receptor (unknown origin) to Ki for human 5-HT1D receptor
Escherichia coli [58] = assay: Adjuvant activity assessed as potentiation of rifampicin-induced antibacterial activity against Escherichia coli BW25113 at 0.5 times MIC after 16 to 18 hrs by checkerboard assay (reference value: 8 ng/ml); type: functional
Staphylococcus aureus [59] = assay: Antibacterial activity against Staphylococcus aureus after 16 to 18 hrs by micro-dilution method; type: functional

In the case of `CCCCCCCCCOc1ccc2[nH]cc(CCN)c2c1.Cl`, the Activity (Escherichia coli [1]) is reported as 100%, the MIC (Escherichia coli [2]) is reported as 0.002 µg/mL and the MIC (Vibrio cholerae [3]) is reported as 6 to 24 µg/mL. For the same compound, the MIC (Escherichia coli [4]) was 80 µM, the MBC (Shigella boydii [5]) was 6 µg/mL and the Activity (Escherichia coli [6]) was “Active”. It also gave a Ratio (Shigella boydii [7]) of 1, an MBC (Edwardsiella tarda [8]) of 12 µg/mL and an MIC (Klebsiella pneumoniae [9]) of 6 µg/mL. It also gave an MIC (Escherichia coli [10]) of 80 µM, a Ratio (Pseudomonas aeruginosa [11]) of 4 and an MIC (Escherichia coli [12]) of 80 µM. For the same compound, the MIC (Shigella boydii [13]) was 6 µg/mL, the MIC (Bacillus subtilis [14]) was 0.76 µg/mL and the MIC (Klebsiella aerogenes [15]) was 6 to 24 µg/mL. The Ratio (Staphylococcus aureus [16]) was 2, the Ratio (Morganella morganii [17]) was 2 and the MIC (Escherichia coli [18]) was 0.008 µg/mL. The Ratio (Vibrio cholerae [19]) was 4, the MIC (Acinetobacter baumannii [20]) was 6 µg/mL and the MBC (Klebsiella pneumoniae [21]) was 6 µg/mL. The Ratio (Escherichia coli [22]) was 2, the MIC (Escherichia coli [23]) was 0.013 µg/mL and the Ratio (Acinetobacter baumannii [24]) was 1. It also gave an MBC (Streptococcus pyogenes [25]) of 24 µg/mL, an MBC (Pseudomonas aeruginosa [26]) of 96 µg/mL and an MIC (Escherichia coli [27]) of 0.008 µg/mL. The MBC (Acinetobacter baumannii [28]) was 6 µg/mL, the MIC (Escherichia coli [29]) was 80 µM and the MBC (Vibrio cholerae [30]) was 24 µg/mL. For the same compound, the MIC (Escherichia coli [31]) was 1.5 µg/mL, the MIC (Edwardsiella tarda [32]) was 6 to 12 µg/mL and the MIC (Escherichia coli [33]) was 6 µg/mL. It also gave a Ratio (Edwardsiella tarda [34]) of 2, an MIC (Escherichia coli [35]) of 0.002 µg/mL and a Ratio (Escherichia coli [36]) of 4. It also gave an MIC (Escherichia coli [37]) of 80 µM, an MBC (Staphylococcus aureus [38]) of 6 µg/mL and an MIC (Morganella morganii [39]) of 12 to 24 µg/mL. The MIC (Streptococcus pyogenes [40]) was 24 µg/mL, the MBC (Bacillus subtilis [41]) was 0.76 µg/mL and the MBC (Morganella morganii [42]) was 24 µg/mL. The MIC (Pseudomonas aeruginosa [43]) was 24 to 96 µg/mL, the MIC (Escherichia coli [44]) was 80 µM and the MBC (Escherichia coli [45]) was 12 µg/mL. It also gave a Ratio (Klebsiella aerogenes [46]) of over 4, a Ratio (Bacillus subtilis [47]) of 1 and an MIC (Escherichia coli [48]) of 0.008 µg/mL. It also gave an MIC (Escherichia coli [49]) of 0.013 µg/mL, a Ratio (Streptococcus pyogenes [50]) of 1 and an MIC (Salmonella typhimurium [51]) of 6 to 24 µg/mL. The MBC (Escherichia coli [52]) was 6 µg/mL, the MBC (Klebsiella aerogenes [53]) was over 24 µg/mL and the Ratio (Klebsiella pneumoniae [54]) was 1. For the same compound, the Ratio (Salmonella typhimurium [55]) was 4, the MIC (Escherichia coli [56]) was 80 µM and the MBC (Salmonella typhimurium [57]) was 24 µg/mL. It also gave a Ratio Ki (Homo sapiens) of 300, an MIC (Escherichia coli [58]) of 0.008 µg/mL and an MIC (Staphylococcus aureus [59]) of 6 µg/mL.
